In patent US20180273528A1 (LES LABORATOIRES SERVIER, priority 2015, published 2018) one finds IC50 and response vs control in vivo data, which are given here for seven compounds.

The target of one experiment is T1, DYRK1B (Homo sapiens, UniProt Q9Y463).
T1 construct: full-length human kinases from Carna Biosciences; purchased Carna Biosciences 04-131
Briefly: Kinase TR-FRET assay, DYRK1B. Type of experiment: biochemical. As to conditions: full-length human kinase, 10 μM ATP. Summed up:
(§1)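 Compounds tested at 0.1 nM to 30 μM in reaction buffer; reaction stopped with 10 mM EDTA. Phosphorylated MBP detected with 1 nM Europium-labelled anti-phospho-Thr232 antibody by TR-FRET.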
(Time-resolved FRET reads energy transfer from a long-lived donor to a nearby acceptor.)

The target in experiment [1] is T2, DYRK1A (Homo sapiens, UniProt Q13627). Description: Cellular DYRK1 autophosphorylation assay in U2-OS cells. Type of experiment: cell-based. More on the design: full-length, wild-type human DYRK1A (NM_001396) with an HA tag; expressed in transfected cells; host or cells: human U2-OS osteosarcoma cells, transient transfection of a pcDNA3.1 plasmid. As to conditions: U2-OS cells transfected with HA-tagged human DYRK1A, 5 hours exposure; read-out: IC50 (μM) P-Ser520-Dyrk1A -Cell assay. The gist of the method: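 IC50 derived from dose-response curves of phospho-Ser520-DYRK1A (blots normalised to total DYRK1A), quantified by either immunoblotting with chemiluminescence or Mesoscale electrochemiluminescent ELISA. Compounds applied to U2-OS cells across several concentrations for 5 hours.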

Experiment [2] concerns the target T2, DYRK1A. Description: Pharmacodynamic assay in RS4;11 tumor xenografts for inhibition of DYRK1A autophosphorylation. Type of experiment: in vivo. Set-up: tumors were excised and proteins were extracted in tissue lysis buffer; from tissue; host or cells: RS4;11 human leukemia xenograft tumors grown in female SCID mice. As to conditions: mouse, single oral administration, 2 h, RS4;11 tumors in SCID mice, read-out: phospho-Ser520-DYRK1A (% control at 2 h). The method, then: For pharmacodynamics studies of inhibition of DYRK1A autophosphorylation, female SCID mice were injected subcutaneously with RS4; 11 human acute lymphoblastic leukemia cells. When tumors reached a size of 200-300 mm^3, mice were randomized into homogeneous groups of 3 and given a single oral administration of the compounds of the invention at doses of up to 100 mg/kg. […] The relative levels of phospho-Ser520-DYRK1A were assayed using western blotting. For this, lysates were diluted into Laemmli sample buffer (Bio-Rad) containing 5% v/v β-mercaptoethanol, heated for 5 min at 95° C., and resolved on Tris-glycine gels or NuPage Bis-Tris gels (Novex; Invitrogen). Biotinylated molecular weight standards (Cell Signaling Technology) were included in all gels. Proteins were transferred to nitrocellulose membranes (Hybond, ECL; Amersham), which were blocked in Tris-buffered saline/0.1% tween 20 (TBST) containing 5% milk, and probed at 4° C. overnight with anti-phospho-Ser520-DYRK1A antibody (Eurogentec SE6974-75; 0.23 μg/ml in 5% BSA) or anti DYRK1A antibody (Abnova H00001859; 0.5 μg/ml in 5% milk). Peroxidase-conjugated secondary antibodies were diluted into 5% milk and applied to membranes for 1 h at 20° C. Chemiluminescence detection was performed using the ECL plus western blotting detection kit (Amersham) and was recorded on ECL plus hyperfilm (Amersham). Blots were scanned using the Bio-Rad GS-800 calibrated densitometer and quantitative analysis of western blots was performed using TotalLab software (Amersham). The percentage inhibition of phospho-Ser520-DYRK1A as compared to the control tumors was calculated using the ratio between phospho-Ser520-DYRK1A and total DYRK1A signals at each dose.

Another experiment concerns the target T3, CLK1 (Homo sapiens, UniProt P49759).
T3 construct: full-length human kinases from Carna Biosciences; purchased Carna Biosciences 04-126
Description: Kinase TR-FRET assay, CLK1. The class given is biochemical. Conditions: full-length human kinase, 10 μM ATP. The gist of the method:
as §1

Structures are written as SMILES.

T1 sequence (Q9Y463 whole entry): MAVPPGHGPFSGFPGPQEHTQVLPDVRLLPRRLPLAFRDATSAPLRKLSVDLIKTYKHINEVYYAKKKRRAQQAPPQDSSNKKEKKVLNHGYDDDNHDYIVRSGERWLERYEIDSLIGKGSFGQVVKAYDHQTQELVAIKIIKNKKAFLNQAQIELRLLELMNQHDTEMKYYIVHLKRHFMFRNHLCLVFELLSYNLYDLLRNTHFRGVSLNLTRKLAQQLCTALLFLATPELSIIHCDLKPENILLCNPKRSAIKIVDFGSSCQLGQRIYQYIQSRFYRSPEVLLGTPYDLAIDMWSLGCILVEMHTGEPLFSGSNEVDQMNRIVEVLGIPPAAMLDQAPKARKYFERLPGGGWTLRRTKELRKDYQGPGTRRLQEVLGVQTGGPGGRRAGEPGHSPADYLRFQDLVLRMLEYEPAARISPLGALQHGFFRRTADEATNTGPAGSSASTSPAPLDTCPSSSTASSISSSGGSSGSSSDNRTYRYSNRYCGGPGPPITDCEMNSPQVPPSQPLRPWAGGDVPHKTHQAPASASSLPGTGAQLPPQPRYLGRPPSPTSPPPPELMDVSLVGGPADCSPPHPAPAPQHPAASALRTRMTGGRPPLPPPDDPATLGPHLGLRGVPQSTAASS
T3 sequence (P49759 1-526 isoform P49759-3): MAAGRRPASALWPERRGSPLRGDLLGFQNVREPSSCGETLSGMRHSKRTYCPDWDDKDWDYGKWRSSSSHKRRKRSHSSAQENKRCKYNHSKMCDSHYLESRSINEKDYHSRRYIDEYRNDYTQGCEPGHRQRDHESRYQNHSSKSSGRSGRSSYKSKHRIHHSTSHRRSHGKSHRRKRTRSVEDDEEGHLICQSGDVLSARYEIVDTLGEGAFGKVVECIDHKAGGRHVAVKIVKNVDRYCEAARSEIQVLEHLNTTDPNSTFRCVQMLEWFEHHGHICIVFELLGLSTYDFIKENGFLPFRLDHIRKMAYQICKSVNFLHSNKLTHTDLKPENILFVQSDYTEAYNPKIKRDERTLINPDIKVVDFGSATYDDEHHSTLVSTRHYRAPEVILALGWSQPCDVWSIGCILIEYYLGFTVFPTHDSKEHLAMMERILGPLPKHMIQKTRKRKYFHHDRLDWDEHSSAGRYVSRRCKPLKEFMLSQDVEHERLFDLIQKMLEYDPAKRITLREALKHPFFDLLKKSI

Consider `Cc1nc2ccc(-c3cc(N)nc(N)c3)nc2n1C[C@@H](C)Oc1ccccc1` (single isomer, unassigned) [Example 106], for which the figures for the IC50 against DYRK1B, on DYRK1A [1] and against CLK1 were 0.006 µM, 0.073 µM and 0.019 µM, respectively. Further, at DYRK1A [2] (dose 9 mg/kg), the response vs control in vivo at 9 mg/kg was determined as 46%.
On to `Cc1nc2ccc(-c3cc(N)nc(N)c3)nc2n1C1CC1` [Example 9, 4-(3-cyclopropyl-2-methyl-3H-imidazo[4,5-b]pyridin-5-yl)pyridine-2,6-diamine], for which the IC50 (usually the concentration needed to halve the response being measured) stood at 0.006 µM against DYRK1B, 0.09 µM at DYRK1A [1] and 0.021 µM against CLK1. Besides, the response vs control in vivo at 3 mg/kg on DYRK1A [2] came out at 44%.
Taken in the same sequence, the figures for `Cc1nc2ccc(-c3cc(N)nc(N)c3)nc2n1Cc1ccoc1` [Example 42, 4-[3-(furan-3-ylmethyl)-2-methyl-3H-imidazo[4,5-b]pyridin-5-yl]pyridine-2,6-diamine] were 0.01 µM, 0.045 µM, 0.053 µM and 35%.
The corresponding values for `Cc1nc2ccc(-c3cc(N)nc(N)c3)nc2n1CCCC(F)(F)F` [Example 71, 4-[2-methyl-3-(4,4,4-trifluorobutyl)-3H-imidazo[4,5-b]pyridin-5-yl]pyridine-2,6-diamine] are 0.006 µM, 0.047 µM, 0.016 µM and 33%.
On to `Cc1nc2ccc(-c3cc(N)nc(N)c3)nc2n1C1CC(F)(F)C1` [Example 101, 4-[3-(3,3-difluorocyclobutyl)-2-methyl-3H-imidazo[4,5-b]pyridin-5-yl]pyridine-2,6-diamine], for which the IC50 turned out to be 0.007 µM at DYRK1B, 0.006 µM on DYRK1A [1] and 0.016 µM on CLK1. Also, the response vs control in vivo at 3 mg/kg at DYRK1A [2] was 25%.
The corresponding values for `Cc1nc2ccc(-c3cc(N)nc(N)c3)nc2n1C1CC(F)C1` (stereo not shown) [Example 103, 4-[3-(3-fluorocyclobutyl)-2-methyl-3H-imidazo[4,5-b]pyridin-5-yl]pyridine-2,6-diamine] are 0.005 µM, 0.014 µM, 0.015 µM and 41%.
The corresponding values for `CCn1c(C)nc2ccc(-c3cc(N)nc(N)c3)nc21` [Example 154, 4-(3-ethyl-2-methyl-3H-imidazo[4,5-b]pyridin-5-yl)pyridine-2,6-diamine] are 0.002 µM, 0.02 µM, 0.023 µM and 28%.
